Laboratory results published in patent US20230390373A1, “A LIVE STRAIN OF STAPHYLOCOCCUS AUREUS AND USES THEREOF” (priority 2020, published 2023).
“Also recorded” adds a separate entry of the source. Residues, ends and D or L forms follow the SMILES beside them. *: point of attachment. Cbz = O=C(OCc1ccccc1)*; CH2F = FC*

Key:
[1] = system: mouse bone marrow derived dendritic cells (BMDC); test: IL-1β release / inflammasome activation in infected BMDC; format: cell-based; conditions: MOI=20, 6 hours; for IL-1β production/release in S. aureus infected BMDC: MCC950 10 μM, Cytochalasin D 5 μM, ZM241385 10 μM
Protocol: (§1) Bone marrow cells extracted from femur of 8-12 weeks old female BALB/c mice were culture in RPMI-1640 medium supplemented with L-glutamine, 10% heat inactivated-FBS, 1×penicillin/streptomycin, 10 mM HEPES, 50 μM-β mercaptoethanol, 20 ng/ml mGM-CSF (PeproTech) for up to 7 days differentiation.
One day before bacterial infection experiments, S. aureus strains were inoculated and cultured with BHI broth for overnight. Next day, overnight culture of bacteria strains were sub-cultured in fresh BHI broth at a dilution of 1:100 and grown at 37° C. Following 3 hours of culturing, S. aureus were harvested and washed for two to three times in cold PBS by centrifugation. Finally, S. aureus strains were diluted with desired volume of PBS, yielding an OD600 of 0.5 (1×10^8 CFU/ml), and further centrifuged and resuspended at desired bacterial concentration. The number of bacteria was determined by serial dilution and colony formation on BHI agar plates. Mammalian cells were plated in 24-well plates at a number of 4×10^5 per well and infected with S. aureus strains in antibiotic free medium at the indicated MOI.
Culture supernatants of relevant cells were collected and centrifuged at 13000 rpm for 4 min to get rid of cell debris and bacteria. Levels of LDH in culture supernatants were measured by CytoTox 96 Non-Radioactive Cytotoxicity Assay kit (Promega). Cell viability was measured by the CellTiter Glo Luminescent Cell Viability Assay (Promega). ELISA assay was conducted according manufactures' instructions.
For detection of cleaved form of caspase-1, cell culture supernatants were precipitated by methanol-chloroform method. Briefly, supernatant was mixed with an equal volume of methanol and 0.25 volumes of chloroform, vortexed and centrifuge for 15 min at 20000 g. The upper phase was discarded and the interphase was mixed with methanol. After centrifugation for 5 min at 20000 g, the pellet was resuspended in 2×SDS-PAGE sample buffer and boiled for 5 min at 100° C. Protein samples were separated by 15% SDS-PAGE gels and were transferred onto PVDF membranes. Total cell lysates lysed by RIPA buffer (50 mM Tris-Cl, pH 7.4, 150 mM NaCl, 1% Triton X-100, 0.1% SDS, 1% sodium deoxycholate and 0.5 mM EDTA) supplemented with 1× protease inhibitor cocktail (Roche) were boiled for 5 min at 100° C. Lysate aliquots were separated by SDS-PAGE gels and transferred onto PVDF membranes. Blots were probed with primary antibody: rabbit anti-caspase-1 (1:1000 dilution, 179515 from Abcam, USA), mouse anti-β actin (1:5000 dilution, A5316 from Sigma). Anti-rabbit or mouse antibodies conjugated to HRP were used as secondary reagents.

BALB/c mice = test: Th17 response in inhibitor-pretreated mice infected with wild type S. aureus; format: in vivo; conditions: splenocytes re-stimulated MOI=5, 4 days
Protocol: Protocol for harvest and calculation of wild type and variant S. aureus strains was the same as described above. To induce systemic blood infection model of S. aureus in FIG. 1, 200 ul of bacterial suspension (1×10^7 CFU) was administered intravenously into naïve 6-wk-old female BALB/c mice. To establish re-infection model in FIG. 5, mice were intraperitoneally infected with WT S. aureus (USA300), adsA mutant strain or WT S. aureus (USA300)/adsA mutant strain (4×10^7 CFU) for a total of 3 times at 7 days interval. After 14 days convalescent period, mice were re-challenged with lethal dose of WT USA300 S. aureus (4×10^7 CFU) or sublethal dose of WT USA300 S. aureus (2×10^7 CFU). Upon bacterial infection, health conditions of mice were frequently monitored in compliance with humane end points (HEP) form. To measure staphylococcal burden in blood, after 2 h of i.v. infection, mice were anaesthetized by intraperitoneal injection of 80-120 mg ketamine and 3-6 mg xylazine per kilogram of body weight and blood was collected via tail vein. Blood samples were incubated on ice in 0.5% saponin/PBS for lysis of host cells. Later on, serial dilutions were performed on BHI agar plates for colony formation. To enumerate bacteria in tissues, mice were euthanized by CO2 inhalation, organs including lungs, spleens and kidneys were harvested and homogenized in 1% Triton X-100/PBS. Aliquots of homogenates were serially diluted and spread on BHI agar plates for colony formation. For histopathology, kidneys were incubated in 4% paraformaldehyde (PFA) at room temperature for 24 h. Tissues were embedded in paraffin, thin sectioned, stained with hematoxylin-eosin, and examined by microscopy.
Animals were sacrificed at indicated time points in re-infection model. Spleens were harvested and grinded for cells suspension. After centrifugation, splenocytes were experienced red blood cell lysing, washes and filtering, and single cells suspension was cultured in RPMI-1640 media supplemented with 10% FBS, 100 U/ml penicillin and […]. […]

HMDM = test: Cell viability assay of infected HMDM; format: cell-based, human; conditions: MOI=100, 8 hours, Z-VADFMK 25 μM, VX765 20 μM, NSA 5 μM
Protocol: Human peripheral blood mononuclear cells (PBMC) were isolated from human buffy coat (provided by Department of Microbiology, The University of Hong Kong, Li Ka Shing Faculty of Medicine) by Ficoll-Paque gradient protocol. In brief, 30 mL of 1:1 PBS diluted buffy coat from healthy donors were layered on Ficoll-Paque Plus (GE Healthcare, Life Sciences) and centrifuged at 450×g for 30 min at room temperature. Separated layers of PBMC were collected and then washed 2 times with RPMI-1640 medium. After washing, the cells were resuspended in 4 mL red blood cell lysing buffer (Biolegend, RBC Lysis Buffer) and incubated for 5 min at room temperature. Following two subsequent washes, the cell pellet was resuspended in RPMI-1640 media supplemented with 10% FBS, 100 U/ml penicillin and 0.1 mg/ml streptomycin for further infection experiments. To differentiate human monocytes-derived macrophages (HMDM), isolated PBMC were seeded on poly-L-lysine coated coverslips in 24 well plate and cultured in RPMI-1640 media supplemented with L-glutamine, 10% FBS, 1×penicillin/streptomycin, 10 mM HEPES, 50 ng/mL hGM-CSF (PeproTech) for up to 7 days differentiation.
One day before bacterial infection experiments, S. aureus strains were inoculated and cultured with BHI broth for overnight. Next day, overnight culture of bacteria strains were sub-cultured in fresh BHI broth at a dilution of 1:100 and grown at 37° C. Following 3 hours of culturing, S. aureus were harvested and washed for two to three times in cold PBS by centrifugation. […] The number of bacteria was determined by serial dilution and colony formation on BHI agar plates. […]
Culture supernatants of relevant cells were collected and centrifuged at 13000 rpm for 4 min to get rid of cell debris and bacteria. Levels of LDH in culture supernatants were measured by CytoTox 96 Non-Radioactive Cytotoxicity Assay kit (Promega). Cell viability was measured by the CellTiter Glo Luminescent Cell Viability Assay (Promega). […]

NLRP3 = NLRP3 expression in BMDC (qPCR, immunoblot); format: cell-based, mouse; conditions: 4 hours
Protocol: as §1
For detection of cleaved form of caspase-1, cell culture supernatants were precipitated by methanol-chloroform method. Briefly, supernatant was mixed with an equal volume of methanol and 0.25 volumes of chloroform, vortexed and centrifuge for 15 min at 20000 g. The upper phase was discarded and the interphase was mixed with methanol. After centrifugation for 5 min at 20000 g, the pellet was resuspended in 2×SDS-PAGE sample buffer and boiled for 5 min at 100° C. Protein samples were separated by 15% SDS-PAGE gels and were transferred onto PVDF membranes. […]
Total RNA was extracted from cells using TRIzol Reagent (Invitrogen) and 1 μg total RNA was used for reverse transcription (Takara) according to manufactures' instructions. The cDNA was then used for quantitative RT-PCR to analyze relevant mRNA expression using Applied Biosystems StepOnePlus™ Real-Time PCR System and SYBR Premix Ex Taq kit (Takara) according to the manufacturer's instruction. The data were normalized to GAPDH and fold change in gene expression was calculated by comparative CT method (2^−ΔΔCT).

SMILES: C=C1[C@@H](C)[C@H]2[C@H](Cc3ccccc3)NC(=O)[C@]23[C@H](OC(C)=O)/C=C/[C@@](C)(O)C(=O)[C@@H](C)C/C=C/[C@H]3[C@@H]1O [Cytochalasin D]
- IL-1β production/release in S. aureus infected BMDC [1]: nearly suppressed IL-1β production
- IL-1β production/release in S. aureus infected BMDC ([1]; listed as cytochalasin D): had little IL-1β production

SMILES: CC(C)(O)c1coc(S(=O)(=O)NC(=O)Nc2c3c(cc4c2CCC4)CCC3)c1 [MCC950]
- IL-1β production/release in S. aureus infected BMDC [1]: largely dampen IL-1β production; also recorded: almost prevented the release of IL-1β; also recorded: had little IL-1β production
- Th17 response / IL-17A production vs vehicle control (BALB/c mice): decreased IL-17A production

SMILES: CCO[C@@H]1OC(=O)C[C@@H]1NC(=O)[C@@H]1CCCN1C(=O)[C@@H](NC(=O)c1ccc(N)c(Cl)c1)C(C)(C)C [VX765]
- effect on S. aureus / adsA mutant-induced cell death (HMDM): dramatically decrease adsA mutant-induced cell death
- Th17 response / IL-17A production vs vehicle control (BALB/c mice): decreased IL-17A production

SMILES: COC(=O)C[C@H](NC(=O)[C@H](C)NC(=O)[C@@H](NC(=O)OCc1ccccc1)C(C)C)C(=O)CF [Z-VAD-FMK] (Cbz-Val-Ala-Asp(OMe)-CH2F)
- effect on S. aureus / adsA mutant-induced cell death (HMDM): dramatically decrease adsA mutant-induced cell death

SMILES: Nc1nc(NCCc2ccc(O)cc2)nc2nc(-c3ccco3)nn12 [ZM241385]
- IL-1β production/release in S. aureus infected BMDC [1]: improved IL-1β production

SMILES: Nc1ncnc2c1ncn2[C@@H]1O[C@H](CO)[C@@H](O)[C@H]1O [adenosine, Adenosine]
- inflammasome activation (IL-1β release and immunoblot) in BMDC infected with adsA mutant ([1]; pretreated with adenosine 100 μM): impaired inflammasome activation
- expression level of NLRP3 (qPCR) (NLRP3; BMDC activated by adsA mutant S. aureus or Pam3CSK4 / LPS (100 ng/ml), adenosine 100 μM): decreased the expression level of NLRP3
- NLRP3 expression at protein level (NLRP3; BMDC pre-treated with a series of dose of adenosine, LPS 100 ng/ml): inhibited NLRP3 expression at protein level in a dose-dependent manner

SMILES: Cn1c(=O)c2c(ncn2C)n(C)c1=O [caffeine, Caffeine]
- Th17 response / IL-17A production vs vehicle control (BALB/c mice): did not have any influence on Th17 immunity

SMILES: COc1nccnc1NS(=O)(=O)c1ccc(NC(=O)/C=C/c2ccc([N+](=O)[O-])s2)cc1 [necrosulfonamide, Necrosulfonamide]
- effect on S. aureus / adsA mutant-induced cell death (HMDM): did not have apparent effect on S. aureus induced cytotoxicity
